Results on 19 compounds are retold here after patent US9815787B2, “Sulfonamide derivative or pharmaceutically acceptable acid addition salt thereof” (UNIVERSITY OF TSUKUBA, priority 2013, dated 2017).

The target of this test is T1, OX2R (Homo sapiens, UniProt O43614).
T1 construct: expressed in transfected cells; host or cells: CHO (Chinese hamster ovary) cells constitutively expressing the OX2R gene and NFAT-luciferase (CHOOX2R)
T1 sequence (O43614 1-444): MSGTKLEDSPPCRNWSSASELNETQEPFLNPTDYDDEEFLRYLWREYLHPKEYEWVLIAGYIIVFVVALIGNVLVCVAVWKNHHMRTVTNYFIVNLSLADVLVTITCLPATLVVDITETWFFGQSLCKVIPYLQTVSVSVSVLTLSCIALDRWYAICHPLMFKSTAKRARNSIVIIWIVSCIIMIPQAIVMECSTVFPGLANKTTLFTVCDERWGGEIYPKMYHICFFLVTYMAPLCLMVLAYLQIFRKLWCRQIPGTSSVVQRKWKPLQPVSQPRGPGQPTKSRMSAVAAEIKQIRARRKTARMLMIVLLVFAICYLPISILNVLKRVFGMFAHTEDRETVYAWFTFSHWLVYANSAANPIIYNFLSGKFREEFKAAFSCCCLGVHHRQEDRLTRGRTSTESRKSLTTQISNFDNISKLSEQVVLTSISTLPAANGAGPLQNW
The test is described as follows: Evaluation of agonist activity against OX2R (CHOOX2R cells, Fura2AM fluorescence, FDSS3000). It counts as cell-based. As for the experimental part: Evaluation of Agonist Activity Against OX2R
NFAT-luciferase gene and OX2R gene were each constitutively expressed in CHO cell, which is a cell line derived from Chinese hamster ovary to establish a cell line (CHOOX2R). The cells thereof were sown on a 96 well plate at 10000 cells/well, and cultured in a 5% FBS-added DMEM medium for 48 hr. […] After washing, HEPES buffer (75 μL) was added, a test compound solution (25 μL) was added, and changes in the fluorescence intensity were measured by FDSS3000 (Hamamatsu Photonics K.K.). The test compound was dissolved in DMSO (final concentration of DMSO was 1%), and diluted with HEPES buffer to a final concentration of 0.1 μM, 1.0 μM or 10 μM.

Where [1] appears, read: test compound 0.1 μM; relative to orexin-A as full agonist (100%); CHOOX2R cells.
Where [2] appears, read: test compound 1.0 μM; relative to orexin-A as full agonist (100%); CHOOX2R cells.
Where [3] appears, read: test compound 10 μM; relative to orexin-A as full agonist (100%); CHOOX2R cells.
Where [4] appears, read: OX2R agonist activity; CHOOX2R cells.
The mark [5] stands for this setting: conversion with orexin-A as full agonist (maximum agonist activity 100%).
[6] abbreviates: test compound 0.1 μM; CHOOX2R cells; relative to orexin-A as full agonist (100%).
The mark [7] stands for this setting: test compound 1.0 μM; CHOOX2R cells; relative to orexin-A as full agonist (100%).
Setting [8] is: test compound 10 μM; CHOOX2R cells; relative to orexin-A as full agonist (100%).

For `COc1ccccc1C(=O)NCCNc1cccc(NS(=O)(=O)c2cc(-c3cc(Cl)ccc3Cl)ccc2OC)c1` [Example 25, N-(2-((3-(2′,5′-dichloro-4-methoxy-[1,1′-biphenyl]-3-ylsulfonamide)phenyl)amino)ethyl)-2-methoxybenzamide], the “Response (0.1 μM (%))” value under setting [1] is reported as less than 5%. Besides, under setting [2], the “Response (1.0 μM (%))” value amounted to 7%. For the same compound, the “Response (10 μM (%))” value under setting [3] amounted to 38%.
In the same order, the values of `CCOc1ccc(-c2cccc(C(=O)N(C)C)c2)cc1S(=O)(=O)Nc1cccc(NCCNC(=O)c2ccccc2OC)c1` [Example 108, 4′-ethoxy-3′-(N-(3-((2-(2-methoxybenzamido)ethyl)amino)phenyl)sulfamoyl)-N,N-dimethyl-[1,1′-biphenyl]-3-carboxamide] are 44%, 81% and 82%.
For orientation: EC50 means the midpoint of the concentration-response curve. A higher EC50 goes with a need for much substance. What is called Emax is the greatest response seen or fitted, relative to the assay's reference. The compound `COc1ccc(C(=O)NCCNc2cccc(NS(=O)(=O)c3cc(-c4cccc(C(=O)N(C)C)c4)ccc3OC)c2)cc1` [Example 44, 4′-methoxy-3′-(N-(3-((2-(4-methoxybenzamido)ethyl)amino)phenyl)sulfamoyl)-N,N-dimethyl-[1,1′-biphenyl]-3-carboxamide] registered a concentration for a half-maximal effect (EC50) under setting [4] of 1050 nM. Under setting [5], this compound showed an Emax of 94%. In addition, the “Response (0.1 μM (%))” value under setting [6] is recorded as less than 5%. Besides, the “Response (1.0 μM (%))” value under setting [7] is on record as 28%. The “Response (10 μM (%))” value under setting [8] worked out at 94%.
On to `COc1cccc(C(=O)NCCNc2cccc(NS(=O)(=O)c3cc(-c4cccc(C(=O)N5CCC5)c4)ccc3OC)c2)n1` [Example 83, N-(2-((3-(3′-(azetidine-1-carbonyl)-4-methoxy-[1,1′-biphenyl]-3-ylsulfonamido)phenyl)amino)ethyl)-6-methoxypicolinamide], for which the “Response (0.1 μM (%))” value under setting [6] is listed as less than 5%. In addition, under setting [7], the “Response (1.0 μM (%))” value is on record as 10%. Moreover, the “Response (10 μM (%))” value under setting [8] worked out at 71%.
Regarding `COc1cccc(C(=O)NCCNc2cccc(NS(=O)(=O)c3cc(-c4ncccc4F)ccc3OC)c2)c1` [Example 93, N-(2-((3-(5-(3-fluoropyridin-2-yl)-2-methoxyphenylsulfonamido)phenyl)amino)ethyl)-3-methoxybenzamide], the “Response (0.1 μM (%))” value under setting [6] is less than 5%. Moreover, the “Response (1.0 μM (%))” value under setting [7] is 33%. In addition, the “Response (10 μM (%))” value under setting [8] is listed as 73%.
For `COc1ccc(-c2cccc(C(=O)N(C)C)c2)cc1S(=O)(=O)Nc1cccc(NCCNC(=O)c2ccnn2C)c1` [Example 59, N-(2-((3-(3′-(dimethylcarbamoyl)-4-methoxy-[1,1′-biphenyl]-3-ylsulfonamido)phenyl)amino)ethyl)-1-methyl-1H-pyrazole-5-carboxamide], the “Response (0.1 μM (%))” value under setting [6] is given as less than 5%. Besides, the “Response (1.0 μM (%))” value under setting [7] is listed as less than 5%. Moreover, the “Response (10 μM (%))” value under setting [8] amounted to 64%.
Regarding `COc1ccc(-c2ccccc2F)cc1S(=O)(=O)Nc1cccc(NCCNC(=O)c2cccnc2)c1` [Example 15, N-(2-((3-(2′-fluoro-4-methoxy-[1,1′-biphenyl]-3-ylsulfonamide)phenyl)amino)ethyl)nicotineamide], the “Response (0.1 μM (%))” value under setting [1] was less than 5%. For the same compound, the “Response (1.0 μM (%))” value under setting [2] is listed as less than 5%. Further, the “Response (10 μM (%))” value under setting [3] is given as 6%.
Consider `COc1ccc(-c2cccc(C(=O)N3CCCCC3)c2)cc1S(=O)(=O)Nc1cccc(NCCNC(=O)c2cccnc2OC)c1` [Example 91, 2-methoxy-N-(2-((3-(4-methoxy-3′-(piperidine-1-carbonyl)-[1,1′-biphenyl]-3-ylsulfonamido)phenyl)amino)ethyl)nicotinamide], for which, under setting [6], the “Response (0.1 μM (%))” value is listed as 42%. The “Response (1.0 μM (%))” value under setting [7] came to 90%. In addition, the “Response (10 μM (%))” value under setting [8] is given as 80%.
As to `COc1ccc(-c2ccccc2F)cc1S(=O)(=O)Nc1cccc(NCCNC(=O)c2ccncc2)c1` [Example 16, N-(2-((3-(2′-fluoro-4-methoxy-[1,1′-biphenyl]-3-ylsulfonamide)phenyl)amino)ethyl)isonicotinamide], the “Response (0.1 μM (%))” value under setting [1] was less than 5%. The “Response (1.0 μM (%))” value under setting [2] is reported as less than 5%. Moreover, the “Response (10 μM (%))” value under setting [3] is less than 5%.
As for `COc1cc(OC)cc(-c2ccc(OC)c(S(=O)(=O)Nc3cccc(NCCNC(=O)c4ccccc4OC)c3)c2)c1` [Example 36, 2-methoxy-N-(2-((3-(3′,4,5′-trimethoxy-[1,1′-biphenyl]-3-ylsulfonamide)phenyl)amino)ethyl)benzamide], under setting [6], the “Response (0.1 μM (%))” value is less than 5%. For the same compound, the “Response (1.0 μM (%))” value under setting [7] is on record as 11%. Besides, under setting [8], the “Response (10 μM (%))” value was found to be 68%.
As for `COc1cc(C)c(-c2cccc(C(=O)N(C)C)c2)cc1S(=O)(=O)Nc1cccc(NCCNC(=O)c2ccccc2Cl)c1` [Example 104, 5′-(N-(3-((2-(2-chlorobenzamido)ethyl)amino)phenyl)sulfamoyl)-4′-methoxy-N,N,2′-trimethyl-[1,1′-biphenyl]-3-carboxamide], under setting [1], the “Response (0.1 μM (%))” value was determined as 67%. Further, the “Response (1.0 μM (%))” value under setting [2] amounted to 88%. Also, under setting [3], the “Response (10 μM (%))” value is given as 86%.
Turning to `COc1ccc(-c2cccc(C(=O)N(C)C)c2)cc1S(=O)(=O)Nc1cccc(NCCNC(=O)c2cc(F)cc(F)c2)c1` [Example 54, 3′-(N-(3-((2-(3,5-difluorobenzamido)ethyl)amino)phenyl)sulfamoyl)-4′-methoxy-N,N-dimethyl-[1,1′-biphenyl]-3-carboxamide], under setting [4], the EC50 amounted to 630 nM. Under setting [5], the Emax was found to be 94%. For the same compound, under setting [6], the “Response (0.1 μM (%))” value is reported as 33%. In addition, under setting [7], the “Response (1.0 μM (%))” value turned out to be 168%. Moreover, the “Response (10 μM (%))” value under setting [8] is 126%.
On to `COc1cccc(C(=O)NCCNc2cccc(NS(=O)(=O)c3cc(-c4cccc(OC)c4)ccc3OC)c2)c1` [Example 31, N-(2-((3-(3′,4-dimethoxy-[1,1′-biphenyl]-3-ylsulfonamide)phenyl)amino)ethyl)-3-methoxybenzamide], for which, under setting [1], the “Response (0.1 μM (%))” value stood at 6%. The “Response (1.0 μM (%))” value under setting [2] was 67%. The “Response (10 μM (%))” value under setting [3] is listed as 103%.
`COc1ccc(-c2cccc(C(=O)N3CCCC3)c2)cc1S(=O)(=O)Nc1cccc(NCCNC(=O)c2c(F)cccc2F)c1` [Example 88, 2,6-difluoro-N-(2-((3-(4-methoxy-3′-(pyrrolidine-1-carbonyl)-[1,1′-biphenyl]-3-ylsulfonamido)phenyl)amino)ethyl)benzamide]: under setting [6], the “Response (0.1 μM (%))” value is reported as 76%. For the same compound, the “Response (1.0 μM (%))” value under setting [7] is given as 100%. For the same compound, under setting [8], the “Response (10 μM (%))” value came to 86%.
Take `COc1ccccc1C(=O)NCCNc1cccc(NS(=O)(=O)c2cc(-c3cccc(C(=O)N4CCCC4)c3)ccc2OC)c1` [Example 75, 2-methoxy-N-(2-((3-(4-methoxy-3′-(pyrrolidine-1-carbonyl)-1-[1,1′-biphenyl]-3-ylsulfonamide)phenyl)amino)ethyl)benzamide]: it took 77 nM to reach a half-maximal effect under setting [4] (EC50). This compound gave an Emax under setting [5] of 87%. The “Response (0.1 μM (%))” value under setting [6] is 49%. The “Response (1.0 μM (%))” value under setting [7] is 87%. In addition, the “Response (10 μM (%))” value under setting [8] is reported as 76%.
As for `COc1ccc(-c2cccc(C(=O)N(C)C)c2)cc1S(=O)(=O)Nc1cccc(NCCNC(=O)c2cccc(Cl)n2)c1` [Example 55, 6-chloro-N-(2-((3-(3′-(dimethylcarbamoyl)-4-methoxy-[1,1′-biphenyl]-3-ylsulfonamido)phenyl)amino)ethyl)picolinamide], under setting [6], the “Response (0.1 μM (%))” value is on record as 23%. Moreover, the “Response (1.0 μM (%))” value under setting [7] is reported as 144%. Further, under setting [8], the “Response (10 μM (%))” value is on record as 122%.
As for `COc1ccccc1C(=O)NCCNc1cccc(NS(=O)(=O)c2cc(-c3ccccc3F)ccc2OC)c1` [Example 1, N-(2-((3-(2′-fluoro-4-methoxy-[1,1′-biphenyl]-3-ylsulfonamide)phenyl)amino)ethyl)-2-methoxybenzamide], the “Response (0.1 μM (%))” value under setting [1] is less than 5%. Besides, the “Response (1.0 μM (%))” value under setting [2] is listed as 21%. The “Response (10 μM (%))” value under setting [3] amounted to 57%.
On to `COc1ccccc1C(=O)NCCNc1cccc(NS(=O)(=O)c2cc(-c3cccc(N)c3)ccc2OC)c1` [Example 37, N-(2-((3-(3′-amino-4-methoxy-[1,1′-biphenyl]-3-ylsulfonamide)phenyl)amino)ethyl)-2-methoxybenzamide], for which, under setting [6], the “Response (0.1 μM (%))” value is 16%. The “Response (1.0 μM (%))” value under setting [7] amounted to 102%. Further, the “Response (10 μM (%))” value under setting [8] was 163%.
With `COc1ccccc1C(=O)NCCNc1cccc(NS(=O)(=O)c2cc(-c3ccccc3Cl)ccc2OC)c1` [Example 10, N-(2-((3-(2′-chloro-4-methoxy-[1,1′-biphenyl]-3-ylsulfonamide)phenyl)amino)ethyl)-2-methoxybenzamide], under setting [1], the “Response (0.1 μM (%))” value is reported as less than 5%. In addition, under setting [2], the “Response (1.0 μM (%))” value is on record as less than 5%. In addition, the “Response (10 μM (%))” value under setting [3] came to 41%.
